According to US20090202508A1, “NEGATIVE REGULATION OF HYPOXIA INDUCIBLE FACTOR 1 BY OS-9” (THE JOHNS HOPKINS UNIVERSITY, priority 2004, published 2009):
Peptide text beside a SMILES is read from it. * marks the point of attachment. Cbz = O=C(OCc1ccccc1)*

T1: HA-OS-9 (hemagglutinin epitope-tagged human OS-9) (human, UniProt Q13438 1-667, 35S-methionine labelled when in vitro-translated)
T1 construct: In vitro-translated in reticulocyte lysate (pull-downs) or expressed in transfected 293 cells (co-IP, lysates); also called HA-tagged OS-9; in vitro-translated OS-9
T1 sequence (looked up): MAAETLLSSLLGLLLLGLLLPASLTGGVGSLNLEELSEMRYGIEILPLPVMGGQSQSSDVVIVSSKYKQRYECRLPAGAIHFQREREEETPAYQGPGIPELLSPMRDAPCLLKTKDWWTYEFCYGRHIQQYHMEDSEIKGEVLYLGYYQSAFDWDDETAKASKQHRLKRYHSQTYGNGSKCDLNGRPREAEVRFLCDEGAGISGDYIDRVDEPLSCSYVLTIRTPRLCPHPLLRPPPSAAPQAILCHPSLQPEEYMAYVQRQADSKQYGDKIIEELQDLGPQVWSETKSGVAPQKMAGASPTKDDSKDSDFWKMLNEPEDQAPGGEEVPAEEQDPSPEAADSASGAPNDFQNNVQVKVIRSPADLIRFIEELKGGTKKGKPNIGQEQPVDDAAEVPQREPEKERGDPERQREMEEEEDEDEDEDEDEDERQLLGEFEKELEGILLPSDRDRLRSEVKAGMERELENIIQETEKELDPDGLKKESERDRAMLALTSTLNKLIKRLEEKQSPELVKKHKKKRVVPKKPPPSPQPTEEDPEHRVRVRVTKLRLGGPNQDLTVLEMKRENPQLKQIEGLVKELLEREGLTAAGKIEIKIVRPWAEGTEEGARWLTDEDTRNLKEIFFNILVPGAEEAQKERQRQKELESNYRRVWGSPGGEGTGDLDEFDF

B1: GST-HIF-1α (429-608) (other, UniProt Q16665 429-608, looked up)
chain: PLYNDVMLPSPNEKLQNINLAMSPLPTAETPKPLRSSADPALNQEVALKLEPNPESLELSFTMPQIQDQTPSPSDGSTRQSSPEPNSPSEYCFYVDSDMVNEFKLELVEKLFAEDTEAKNPFSTQDTDLDLEMLAPYIPMDDDFQLRSFDQLSPLESSSASPESASPQSTVTVFQQTQIQ
notes: Expressed in E. coli; not shown: glutathione-S-transferase (GST) from a pGEX expression vector
B2: GST-HIF-1α (531-610) (other, UniProt Q16665 531-610, looked up)
chain: FKLELVEKLFAEDTEAKNPFSTQDTDLDLEMLAPYIPMDDDFQLRSFDQLSPLESSSASPESASPQSTVTVFQQTQIQEP
notes: as for B1
B3: GST-HIF-1α (786-826) (other, UniProt Q16665 786-826, looked up)
chain: SMDESGLPQLTSYDCEVNAPIQGSRNLLQGEELLRALDQVN
notes: as for B1

What was measured:
PHD2 [1] = target: T2, PHD2 (Homo sapiens, UniProt Q9GZT9); experiment: Prolyl hydroxylation assay / in vitro VHL binding assay with GST-HIF-1α (531-826); type: biochemical; details: lysates of PHD2/OS-9 transfected 293 cells; 1 mM DMOG; FIG. 7A
T2 construct: expressed in transfected cells; host or cells: 293 cells (whole cell lysate used as the enzyme source)
T2 sequence (Q9GZT9 whole entry): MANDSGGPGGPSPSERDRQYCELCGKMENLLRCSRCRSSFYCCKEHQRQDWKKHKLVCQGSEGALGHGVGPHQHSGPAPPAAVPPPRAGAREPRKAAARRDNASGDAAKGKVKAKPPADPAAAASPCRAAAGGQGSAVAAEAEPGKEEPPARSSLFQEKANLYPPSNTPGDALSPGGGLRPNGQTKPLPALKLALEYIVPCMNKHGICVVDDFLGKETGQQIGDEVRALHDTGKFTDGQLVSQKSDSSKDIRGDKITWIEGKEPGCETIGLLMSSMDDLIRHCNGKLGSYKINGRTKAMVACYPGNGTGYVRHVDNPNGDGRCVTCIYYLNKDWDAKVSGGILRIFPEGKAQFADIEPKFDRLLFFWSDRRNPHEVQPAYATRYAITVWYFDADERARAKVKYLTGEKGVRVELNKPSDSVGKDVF
Protocol: [^35S]methionine-labeled VHL protein was synthesized in vitro and GST-HIF-1α (531-826) fusion protein (GstA) was expressed in E. coli. 293 cells were transfected with empty, PHD2, or OS-9 expression vector. After 24 h, cells were washed twice with cold hypotonic extraction buffer containing 20 mM Tris (pH 7.5), 5 mM KCl, 1.5 mM MgCl2, 1 mM dithiothreitol and lysed with hypotonic extraction buffer in a Dounce homogenizer. The cell extract was centrifuged at 10,000×g for 10 min at 4° C., and the supernatant was stored in aliquots at −70° C. GstA (4 μg) was preincubated with whole cell lysate (50 μg) in a total volume of 50 μl with PBS-T at 30° C. for 10 min with or without 1 mM dimethyloxalyl glycine (DMOG). The reaction was terminated by addition of desferrioxamine to 1 mM. One aliquot (0.5 μg of GstA) was used for immunoblot assay using anti-hydroxyproline-564 HIF-1α antibody (Chan et al., 2002). The remainder ([…] of GstA) was used for in vitro VHL binding assay.
(§1) For in vitro VHL binding assay, preincubated GstA and 5 μl of [^35S]methionine-labeled VHL protein were mixed in a total volume of 300 μl of PBS-T with 1 mM desferrioxamine and incubated at 4° C. for 90 min. 20 ul of glutathione-Sepharose-4B beads (Amersham Biosciences) was added and incubated for 30 min with rotation. Beads were washed three times with PBS-T. Proteins were eluted in Laemmli sample buffer, fractionated by SDS-PAGE, and detected by autoradiography. For PHD binding assay, […] of GST-HIF-1α was preincubated with 50 μg of -whole cell lysate in a total volume of 50 μl with PBS-T at 30° C. for 10 min with or without 1 mM DMOG. The reaction was terminated by addition of desferrioxamine to 1 mM, 20 μl of glutathione-Sepharose-4B beads were added and incubated for 30 min. The beads were washed three times with PBS-T. Bound protein was eluted in Laemmli sample buffer, fractionated by SDS-PAGE, and subjected to immunoblot assay using antibodies against PHD2 (Novus Biologicals Inc.) or GST (Amersham).

PHD2 [2] = target: T2, PHD2; experiment: PHD binding assay (pull down of PHD2 with GST-HIF-1α (531-826)); details: lysates of transfected 293 cells; 1 mM DMOG; FIG. 7B
Protocol: as §1

HIF-1α = HIF-1α protein levels by immunoblot in transfected 293 cells; type: cell-based, human; details: 293 cells co-transfected with HA-OS-9 and HIF-1α; MG132 10 μM; FIG. 4A
Protocol: 293 or Hep3B cells were seeded onto 24-well plates at 8×10^4 cells per well of a 24-well plate. The following day, the cells were transfected with plasmid DNAs using Fugene-6 (Roche) for 293 and Lipofectamine Plus (Invitrogen) for Hep3B cells. After 24 h, the cells were exposed to 20% or 1% O2 for 24 h. Cells were lysed, and the luciferase activities were determined by multi-well luminescence reader (PerkinElmer), using the Dual-Luciferase Reporter Assay System (Promega). For p2.1 reporter assay, cells were co-transfected with 15 ng of control reporter pSV-Renilla, 135 ng of HIF-1 reporter p2.1, and expression vector encoding HA-OS-9, HIF-1α, or empty vector. Unless indicated otherwise, 200 ng of HIF-1α, 400 ng of HA-OS-9, 1 ng of PHD2, or 1 ng of HIF-1α triple mutant P402A/P564A/N803A (HIF-1α TM) expression vector was used for co-transfection. For pGalA reporter assays, Hep3B cells were co-transfected with 12.5 ng of pSV-Renilla, reporter 200 ng of pG5ElbLuc, 100 ng of expression vector encoding the GAL4 DNA-binding domain alone or fused to HIF-1α residues 531-826 (Jiang et al. 1997) and empty vector or vector encoding HA-OS-9. For immunoblot assays, 293 cells were seeded at 3×10^6 cells per 10-cm plate. The following day, the cells were co-transfected with expression vectors using Fugene-6. After 24 h, the cells were exposed to 20% or 1% O2 with or without MG132 (10 μM) for 8 h and lysed in 200 μl of lysis buffer containing 50 mM Tris-Cl (pH 8.0), 150 mM NaCl, 5 mM EDTA, 0.1% SDS, 1% NP-40, 0.5% sodium deoxycholate, Complete protease inhibitor cocktail (Roche), sodium orthovanadate, and sodium vanadate (Sigma).

[3] = target: T1, HA-OS-9 (hemagglutinin epitope-tagged …); experiment: GST pull-down of 35S-labelled in vitro-translated HA-OS-9, SDS-PAGE and autoradiography

Molecule	binding result [3]	also measured
COC(=O)CNC(=O)C(=O)OC [DMOG, dimethyloxalylglycine, reference compound]	–	binding of VHL to GST-HIF-1α (531-826) (PHD2 [1]): completely blocked; binding of PHD2 to GST-HIF-1α (531-826) (PHD2 [2]): further increased
CC(C)C[C@@H](C=O)NC(=O)[C@H](CC(C)C)NC(=O)[C@H](CC(C)C)NC(=O)OCc1ccccc1 [MG 132, reference compound] (Cbz-Leu-Leu-Leu-aldehyde)	–	reduction in HIF-1α protein levels associated with OS-9 co-expression (HIF-1α): blocked
B1	no binding	–
B2	no binding	–
B3	no binding	–
